The test system of data set [1] is EpiVaginal (VEC-100) 3-D tissues. The data set can be described thus: Barrier integrity by transepithelial electrical resistance (TEER) in EpiVaginal tissues. Conditions: 24 hr exposure; for TEER avg. (% of VC): tissues in triplicate, normalized to average TEER of vehicle control VC. Format: cell-based. On the procedure:
(§1) EpiVaginal (VEC-100) 3-D tissues, produced by MatTek Corporation, were used to evaluate eight test conditions plus a positive control known to have negative effects on tissue viability and barrier function (nonoxynol-9); the conditions tested are given in Table 3 below. Barrier integrity was measured at baseline, and tissues were treated in triplicate with test articles for 24 hours. Three tissues were left untreated to serve as negative control (NC); three tissues were treated with 4% nonoxynol-9 to serve as positive control (PC); and three tissues were dosed with media to serve as vehicle control (VC). At the end of 24 hr exposure to the test articles, barrier integrity was measured using transepithelial electrical resistance (TEER) and two tissues were used to assess tissue viability with the MTT assay. From each treatment group, one tissue was fixed in 10% formalin and processed for H&E staining for histological analysis.
Throughout this Example and Example 8 below, “VS-01” refers to a consortium of three Lactobacillus crispatus strains: LUCA011 (ATCC Accession Deposit No. PTA-127214) at a concentration of 3.70·10^10 CFU/g, LUCA009 (ATCC Accession Deposit No. PTA-127213) at a concentration of 8.60·10^9 CFU/g, and LUCA103 (ATCC Accession Deposit No. PTA-127218) at a concentration of 2.50·10^10 CFU/g. A stock of 10^6 CFU/mL of the combined strains was used for testing. A comparator strain, L. crispatus ATCC 33197, was sourced from the American Type Culture Collection, and it was determined by bioinformatic analysis that the genome of this strain had between 99.0% and 99.2% average nucleotide identity (ANI) with each of the three VS-01 strains.
The concentration of VS-01 most relevant to in vivo exposure in the VEC-100 model (10^6 CFU/mL) was determined using two different approaches: (1) Comparison of the exposure per unit area of vaginal surface area between VS-01 in vivo and VS-01 in the VEC-100 model. As known from the literature, the average surface area of the human vagina ranges from 65.73 to 107.07 cm^2 with a mean of 87.46 cm^2 and a standard deviation of 7.80 cm^2. If an 850 mg tablet as described in Example 3 instantaneously dissolved, the estimated coverage would be 9.7 mg/cm^2 (850 mg/87.46 cm^2). This most closely corresponds to a 1:100 dilution of the tablet and can be considered an upper bound, given that the tablet dissolves slowly over a 24-hour period. (2)
Comparison of the ratio of L. crispatus cells to vaginal epithelial cells in vivo and in the VEC-100 model. […] The Mattek model contains between about 350,000 and about 500,000 cells at a depth of three to five layers. If 100,000 epithelial cells are exposed at the surface, exposure to 10^6 bacterial cells produces a reasonable estimate of a 10:1 bacterial cell/epithelial cell ratio.
An estimate of the concentration of D-lactate most relevant to in vivo exposure was obtained considering tablet dissolution kinetics. Tablets as described in Example 3 are slow-release formulations, dissolving over the course of […]. The volume of cervicovaginal fluid (CVF) present in the vagina is variable, ranging from about 1 mL to about 4 mL, with a discharge rate of about 2 mL to about 5 mL over 24 hours; thus, the dissolution rate of a tablet as described in Example 3 would be about 71 mg/hour. D-lactate concentrations of tablets as described in Example 3 range from about 34 mg/tablet to about 44 mg/tablet. Estimating that 8.4% of an 850 mg tablet dissolves per hour (71 mg/hour divided by 850 mg/tablet) gives an estimated in vivo D-lactate concentration range of 31.7 mM to 40.44 mM D-lactate. Therefore, testing 10 mM and 100 mM D-lactate in this Example covers the physiological range of estimated exposure given the expected variability in the exact concentration of D-lactate per tablet. […]

For data set [2] the test system is unchanged. The data set can be described thus: Tissue viability by MTT assay in EpiVaginal tissues. The data set is classed as cell-based. To be noted: 24 hr exposure. On the procedure:
as §1
On the technique in general: Tetrazolium assays rely on reduction of a dye to a coloured formazan, in cell work by metabolically active cells.

The values that follow come from patent US20250352590A1, “Functional postbiotic composition for homeostatic vaginal care” (Seed Health Inc., priority 2024, published 2025).

Turning to `C[C@@H](O)C(=O)O` [D-lactate], the “Barrier integrity / TEER, result in words” value in data set [1] is “did not result in significant improvements in TEER over VC”.

For `C[C@@H](O)C(=O)O` [TA7, D-lactate], in data set [1], the “TEER avg. (% of VC)” value is on record as 114.8 % of VC.

In the case of nonoxynol-9 [PC], in data set [1], the “Barrier integrity / TEER, result in words” value is given as “barrier disruption” and the “TEER avg. (% of VC)” value is reported as 0.6 % of VC. Moreover, the “TEER vs NC” value in data set [1] (relative to untreated negative control NC) came out at 0.2%. For the same molecule, the “TEER vs VC” value in data set [1] (relative to vehicle control VC) was found to be 0.6%. Further, the “Cytotoxicity / tissue viability (MTT), result in words” value in data set [2] is given as “severe cytotoxicity”.

Take `C[C@@H](O)C(=O)O` [TA6, D-lactate]: the “TEER avg. (% of VC)” value in data set [1] was 128.4 % of VC.
